This passage reports IC50 results from patent US11629135B2 (JUBILANT PRODEL LLC, priority 2017, dated 2023).

Usually IC50 stands for the concentration needed to halve the response being measured.

The test concerns the target T1, CYP 2C9 (Homo sapiens, UniProt P11712).
T1 construct: assessed in human liver microsomes (procured from GIBCO Invitrogen); tissue GIBCO Invitrogen; host or cells: human liver microsomes
Kind of test: CYP inhibition in human liver microsomes (CYP2C9). The class given is in vitro ADME. The following applies: hydroxylation of diclofenac, read-out: predicted IC50, CYP 2C9. On the procedure:
CYP inhibition potential of compound was assessed in human liver microsomes (procured from GIBCO Invitrogen) against CYP3A4, 2D6, 2C9, 2C19 and 1A2 in the following sequential steps. Standard reaction mixture (final volume 300 μL) contained […] potassium phosphate buffer (pH 7.4), protein (0.1, 0.25, 0.5, 0.5 and 0.5 mg/mL concentration for CYP3A4, 2D6, 2C9 2C19 and 1A2 respectively) and compound (at eight different concentration levels ranging from […], added as 0.9 μL DMSO solution with a final DMSO concentration of […]). The mixtures were pre-incubated at 37±1° C. for 5 min. The reaction (in duplicate) was initiated by addition of 30 μL of NADPH (10 mM). Reaction was terminated at 10 min by adding 300 μL of acetonitrile. The activity of liver microsomes was confirmed with positive controls i.e., monitoring the hydroxylation of midazolam for CYP 3A4, hydroxylation of bufuralol for CYP 2D6, hydroxylation of diclofenac for CYP 2C9, hydroxylation of omeprazole for CYP2C19 and O-Deethylation for CYP 1A2. The reaction mixtures (obtained from the above studies) were extracted, processed and analyzed by LC-MS [Shimadzu SIL LC series (Kyoto, Japan) was coupled to an API-4000 Mass Spectrometer (MDS Sciex, Toronto, Canada)].

T1 sequence (P11712 whole entry): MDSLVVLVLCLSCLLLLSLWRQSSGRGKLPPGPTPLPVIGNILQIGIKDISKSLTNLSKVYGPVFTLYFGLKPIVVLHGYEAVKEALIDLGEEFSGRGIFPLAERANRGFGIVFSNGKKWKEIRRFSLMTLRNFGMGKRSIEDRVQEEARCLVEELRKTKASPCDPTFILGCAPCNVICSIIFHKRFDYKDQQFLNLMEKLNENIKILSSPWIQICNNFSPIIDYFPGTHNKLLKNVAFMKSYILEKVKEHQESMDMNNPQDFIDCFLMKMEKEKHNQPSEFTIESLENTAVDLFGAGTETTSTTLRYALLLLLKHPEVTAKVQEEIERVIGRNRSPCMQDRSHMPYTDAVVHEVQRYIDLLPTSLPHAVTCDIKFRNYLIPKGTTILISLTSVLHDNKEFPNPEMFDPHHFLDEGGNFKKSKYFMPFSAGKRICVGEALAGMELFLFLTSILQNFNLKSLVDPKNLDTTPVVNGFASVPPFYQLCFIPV

Take `COc1nc(OCc2cccc(-c3ccccc3)c2C)nc(OC)c1CN1CCCC[C@H]1C(=O)O` [Compound 45, (S)-1-((4,6-dimethoxy-2-((2-methyl-[1,1′-biphenyl]-3-yl)methoxy)pyrimidin-5-yl)methyl)piperidine-2-carboxylic acid]: the IC50 was more than 10 µM.
